Experimental findings from patent US5156846A, “Percutaneous drug delivery system” (University of Utah, priority 1991, dated 1992) are described below.

Read-outs that look alike come from different tables or passages of the source.

Series [1] is described as follows: Effect of pH on drug penetration through hairless mouse skin pretreated with Sigma papain (Example 6B). It is filed as in vitro ADME. Further details: E: unit not given here. The note with it: mouse, read-out: P (permeability). The method, then:
(§1) B. Effect of pH on drug penetration through hairless mouse skin pretreated with Sigma papain of concentration 0.093 mg/ml for 24 hours

For series [2], the system named is hairless mouse skin pretreated with Sigma papain. The series is described as above. It counts as in vitro ADME. Further details: E: unit not given here. As to conditions: for E: Sigma papain 0.093 mg/ml for 24 hours. Here is the method: as §1
Series [3] in a line: Effect of pH on drug penetration through normal untreated hairless mouse skin (Example 6A). It counts as in vitro ADME. The note with it: mouse.
In series [4] the test system is mouse skin. Kind of series: Citric acid penetration through mouse skin with two sources of papain (Example 8). It is filed as in vitro ADME. The note with it: FIG. 20, 0.170 mg papain in 0.1 ml of water; Sigma papain not activated. Here is the method:
Each enzyme preparation contained 0.170 mg of papain dissolved in 0.1 ml of water. One sample of papain was obtained from Allergan. The other was obtained from Sigma Chemical. […] The Sigma Chemical papain was not activated in this experiment.

Series [5] concerns Nude Mouse Skin. Kind of series: In vivo skin recovery following papain treatment: percent urinary recovery 7 days after papain (Example 1B). Further details: species or system congenitally athymic nude mice. The method, then: Experiments were conducted to measure the time required for papain-treated mice to return to normal levels of absorption. These experiments were conducted as described in Example 1A, except that following the removal of papain from the mouse's skin, the mice were maintained separately in metabolism cages for varying periods of time prior to the application of the labeled model compounds. After various time intervals, 150 μl of radiolabeled chemicals were applied separately on the 1 cm^2 marked areas on the backs of the mice, where papain had previously been applied. The mice were then kept in separate metabolism cages and at time intervals of 17, 41, and 65 hours, urine was collected and counted using a scintillation counter.

Series [6] concerns Papain-Treated Athymic Nude Mice Skin. Kind of series: In vitro permeation through excised papain-treated athymic nude mouse skin, Franz-type diffusion cells (Example 2). It counts as in vitro ADME, congenitally athymic nude mice. Here is the method:
Because of some complications encountered during studies utilizing papain treatment by in vivo method (e.g. extended excretion due to storage in various body compartments, delayed response times, etc.) it was decided that additional studies should be conducted wherein the mouse skin was allowed to recover in situ, then excised after various time intervals and evaluated by in vitro permeation methods.
These experiments were conducted by preparing, applying, and occluding papain solutions onto the backs of congenitally athymic nude mice in the same manner as described in Example 1A. At the end of the 24-hour papain treatment, the skin was again cleansed of excess solution. Skin was then excised from part of the animals. The remainder of the animals were housed individually in regular cages for various periods of time (24 hours and 48 hours), after which the treated areas were excised. Immediately following excision of the treated areas, the skins were mounted over Franz-Type, Single-Compartment Diffusion Cells. Four hundred μl of saturated solutions of radiolabeled citric acid, TEAB, glucose, and hydrocortisone were applied, individually, to the exposed surface of the mounted skins on the donor chamber. Saturated solutions of each of these substances were used in order to ensure maximum availability of labeled substances. At varying time intervals, 100 μl samples were removed from the receiver chambers for scintillation counting. All experiments were conducted at 25° C.

Series [7] concerns Nude Mouse Skin. The series can be described thus: Percent urinary recovery of radiolabeled chemicals and protein through nude mouse skin immediately following papain treatment, and controls (Example 1A). Here is the method:
Various anionic, cationic, and nonionic chemicals were utilized as model compounds to determine the influence of proteolytic enzymes of the transdermal penetration of these substances. […] Additional studies were performed using ^14 -C-labeled albumin, lysozyme, and insulin to determine the ability of the proteolytic enzymes to enhance the percutaneous absorption of larger molecules.
Two hundred μl of this solution was applied on to 1 cm^2 areas on the back of congenitally athymic nude mice. The 1 cm^2 areas were covered with folded gauze pads to absorb the excess papain solution, then the areas were occluded with a transparent dressing (Bioclusive Tape) and an adhesive tape. Each mouse was individually housed in separate cages for 24 hours. At the end of this time, residual papain on the surface of the mouse's skin was removed by washing. After cleansing the skin, 150 μl of radiolabeled material was applied separately on each marked area of mouse skin and covered with gauze sponge and Bioclusive tape and adhesive tape. Mice were kept in metabolism cages, one animal per cage, and urine samples collected for scintillation counting to determine the quantity of radiolabeled materials being excreted. Parallel studies were conducted simultaneously on non- papain-treated living mice. These studies served as controls against which the treated animals were measured.

The subject of series [8] is normal untreated hairless mouse skin. The series can be described thus: Effect of pH on drug penetration through normal untreated hairless mouse skin (Example 6A). It is filed as in vitro ADME. The note with it: pH 8.0.
Series [9] deals with mouse skin. The source says:
In this experiment, varying amounts of Sigma papain, activated with cysteine and EDTA, were used.

The subject of a further series is Hairless mouse skin. As to conditions: papain 0.093 mg/ml, pH 7.4, 24 hours pretreatment. The method, then: Hairless mouse skin was pretreated with papain at a concentration of 0.093 mg/ml at pH 7.4 for 24 hours.
A further series has as its system skin. The series can be described thus: Pretreatment of skin samples with papain: drug penetration, skin damage and activation. The method, then: Whatever the enzyme or enzymes selected, each is typically admixed with a liquid, such as water or ethanol to form an enzyme preparation. The concentration of enzymes(s) in liquid will be of a sufficient quantity to increase the skin's permeability to selected drugs over a predetermined time period. […] Concentrations of papain in water will generally be greater than about 0.019 milligrams/milliliter (mg/ml). Preferred concentrations of papain in water will be less than about 0.093 mg/ml.
For example, papain from Sigma Chemical may be activated with the chelating agent ethylenediaminetetraacetic acid ("EDTA"). […] Amounts of EDTA in a papain enzyme preparation will vary from 2 mg/ml to about 20 mg/ml. The amino acid cysteine can also serve as an activating agent.

In series [10] the test system is mouse skin. The series can be described thus: Skin damage as measured by bleeding of mouse skin (Example 5). It counts as in vivo. The method, then: The absolute amounts and relative concentrations of an enzyme preparation containing papain to determine skin damage as measured by bleeding of mouse skin was determined.
Setting [11] is: pH 5.9, Sigma papain 0.093 mg/ml for 24 hours, pH 5.9.
[12] abbreviates: pH 6.6, Sigma papain 0.093 mg/ml for 24 hours, pH 6.6.
[13] abbreviates: pH 7.4, Sigma papain 0.093 mg/ml for 24 hours, pH 7.4.
Setting [14] is: pH 5.9, read-out: P (permeability).
[15] abbreviates: pH 6.6, read-out: P (permeability).
The mark [16] stands for this setting: 7 days following papain treatment.
[17] abbreviates: 7 hours exposure, 1 cm^2 section of skin, saturated solution in water, 25° C.
The mark [18] stands for this setting: control, no papain treatment, immediate.
[19] abbreviates: immediately following papain treatment.
The mark [20] stands for this setting: papain greater than 0.093 mg/ml, pH 7.4.

Regarding `CC(=O)OCC[N+](C)(C)C.[Cl-]` [Acetylcholine Chloride, acetylcholine chloride], the Papp in series [1] (setting [11]) was found to be 3 ×10⁻⁶ cm/s; in series [1] (setting [12]) it was 3.88 ×10⁻⁶ cm/s; in series [1] (setting [13]) it was 3.23 ×10⁻⁶ cm/s; in series [1] (pH 8, Sigma papain 0.093 mg/ml for 24 hours, pH 8.0), 3.14 ×10⁻⁶ cm/s; in [3] (setting [14]), 0.0291 ×10⁻⁶ cm/s; in series [3] (setting [15]), 0.026 ×10⁻⁶ cm/s. For the same molecule, the Papp in series [3] (pH 7.4, read-out: P (permeability)) worked out at 0.032 ×10⁻⁶ cm/s; in series [3] (pH 8.0, read-out: P (permeability)), 0.0466 ×10⁻⁶ cm/s. In addition, the E stood at 103.09 in series [2] (pH 5.9), 149.23 in series [2] (pH 6.6), 100.94 in series [2] (pH 7.4) and 67.38 in series [2] (pH 8.0).
Turning to `C=CCc1ccccc1OCC(O)CNC(C)C` (stereo not shown) [Alprenolol, alprenolol], the E in series [2] (pH 5.9) stood at 22.39; in [2] (pH 6.6), 17.18; in [2] (pH 7.4), 7.17; in series [2] (pH 8.0), 7.86. Moreover, in [2] (mouse, pH 8), the “P (permeability)” value is recorded as 1.65 = 10^-6 cm/sec.
With `O=C(O)CC(O)(CC(=O)O)C(=O)O` [Citric Acid, citric acid], in the series on mouse skin [4], the “penetration through mouse skin” value is “enhanced to a greater extent by the Allergan papain than that of Sigma Chemical”. Besides, the “Percent Recovery (urinary recovery)” value in the series on Nude Mouse Skin [5] (setting [16]) worked out at 0.2%. Besides, in series [6] (setting [17]), the transdermal penetration result is listed as “about 55 mg”.
As to `OC[C@H]1OC(O)[C@H](O)[C@@H](O)[C@@H]1O` (stereo partly shown) [Glucose, glucose], the figures for the “Percent Recovery (urinary recovery)” value in the series on Nude Mouse Skin [7] (setting [18]), with Nude Mouse Skin [7] (setting [19]) and in the series on Nude Mouse Skin [5] (setting [16]) were 0.07%, 1.8% and 0.1%, respectively. Further, in [6], the transdermal penetration result was “about 22 mg”.
Turning to `C[C@]12CCC(=O)C=C1CC[C@@H]1[C@@H]2[C@@H](O)C[C@@]2(C)[C@H]1CC[C@]2(O)C(=O)CO` [Hydrocortisone, hydrocortisone], the “Percent Recovery (urinary recovery)” value in the series with Nude Mouse Skin [7] (setting [18]) is on record as 2.5%; in the series on Nude Mouse Skin [7] (setting [19]), 24.7%; with Nude Mouse Skin [5] (setting [16]), 0.6%. Besides, the transdermal penetration result in [6] (7 hours exposure, 1 cm^2 section of skin, saturated solution in ethanol, 25° C) is reported as “about 125 μg”.
For `CC(=O)[C@H]1CC[C@H]2[C@@H]3CCC4=CC(=O)CC[C@]4(C)[C@H]3CC[C@]12C` [Progesterone, progesterone], the Papp worked out at 3.6 ×10⁻⁶ cm/s in [1] (setting [11]); 4.39 ×10⁻⁶ cm/s in [1] (setting [12]); 3.41 ×10⁻⁶ cm/s in series [1] (setting [13]); 2.88 ×10⁻⁶ cm/s in series [3] (setting [14]); 2.92 ×10⁻⁶ cm/s in series [3] (setting [15]). Further, the E in [2] (pH 5.9) is given as 1.25; in series [2] (pH 6.6) it was 1.50; in series [2] (pH 7.4) it was 1.17; in [2] (pH 8.0), 1.17. For the same molecule, in [8], the “P (permeability)” value was found to be 0.247 ×10⁻⁶ cm/s.
For `CC[N+](CC)(CC)CC.[Br-]` [TEAB, tetraethylammonium bromide], the “drug penetration through mouse skin” value with mouse skin [9] is reported as “varies directly with the amount of papain used”. Also, the “increase in absorption in comparison to normal, untreated mouse skin” value with Hairless mouse skin stood at 33 fold. In the series with skin, the “penetration through the skin” value was “increases the penetration”. The “Percent Recovery (urinary recovery)” value with Nude Mouse Skin [5] (mouse, in vivo, topical or ocular) stood at 5.3%. The molecule further displayed a transdermal penetration in series [6] (setting [17]) of approximately 19 mg.
As to `CC(=O)CC(c1ccccc1)c1c(O)c2ccccc2oc1=O` (stereo not shown) [Warfarin, warfarin], the Papp turned out to be 1.27 ×10⁻⁶ cm/s in [1] (Sigma papain 0.093 mg/ml for 24 hours, pH 5.9); 1.2 ×10⁻⁶ cm/s in series [1] (Sigma papain 0.093 mg/ml for 24 hours, pH 6.6); 0.99 ×10⁻⁶ cm/s in series [1] (Sigma papain 0.093 mg/ml for 24 hours, pH 7.4); 1.21 ×10⁻⁶ cm/s in series [1] (Sigma papain 0.093 mg/ml for 24 hours, pH 8.0).
Turning to Albumin: 14-C-labeled albumin, the “Percent Recovery (urinary recovery)” value in the series on Nude Mouse Skin [5] (setting [16]) was 0.0%.
On the same count and under the same terms, for Insulin: 14-C-labeled insulin the value was 0.0%.
The same measure, in the same setting: for Lysozyme: 14-C-labeled lysozyme the value was 0.0%.

B1: papain: A preferred enzyme is papain, which is readily available from Allergan of Irvine, Calif., Sigma Chemical Company of St. Louis, Mo., and other sources (protein, UniProt P00784 134-345, looked up)
Papain: IPEYVDWRQKGAVTPVKNQGSCGSCWAFSAVVTIEGIIKIRTGNLNEYSEQELLDCDRRSYGCNGGYPWSALQLVAQYGIHYRNTYPYEGVQRYCRSREKGPYAAKTDGVRQVQPYNEGALLYSIANQPVSVVLEAAGKDFQLYRGGIFVGPCGNKVDHAVAAVGYGPNYILIKNSWGTGWGENGYIRIKRGTGNSYGVCGLYTSSFYPVKN
Consider B1, for which the “time until bleeding observed” value is more than 24 h with mouse skin [10] (absolute amount of papain: 0.010 mg/0.108 ml); “about 5.0 hrs” in the series on mouse skin [10] (absolute amount of papain: 0.030 mg/0.108 ml); “about 1.5 hrs” with mouse skin [10] (absolute amount of papain: 0.050 mg/0.180 ml); “about 0.5 hrs” with mouse skin [10] (absolute amount of papain: 0.070 mg/0.250 ml); more than 24 h in the series on mouse skin [10] (concentration of papain: 0.010 mg/0.108 ml); more than 24 h with mouse skin [10] (concentration of papain: 0.020 mg/0.108 ml). For the same molecule, the “time until bleeding observed” value in the series with mouse skin [10] (concentration of papain: 0.030 mg/0.108 ml) and in the series on mouse skin [10] (concentration of papain: 0.040 mg/0.108 ml) was approximately 24 h each time. Besides, the “penetration of drug through the skin” value in the series with skin (0.10 molar cysteine with 0.0375 molar EDTA as activating agent) is listed as “greater penetration of drug through the skin”. Also, the drug penetration result with skin (setting [20]) was “greater drug penetration”. Moreover, the skin damage result in the series with skin (setting [20]) is listed as “damages the skin, possibly leading to bleeding”.
